One assay addresses truncated form of human NaV 1.8 with full channel activity (Homo sapiens, UniProt Q9Y5Y9). In words: E-VIPR Assay Method A for detecting and measuring Nav inhibition (HEK cells, membrane potential FRET dyes, electrical stimulation). It counts as cell-based. As to conditions: HEK cells expressing human NaV 1.8, HS (human serum) in compound loading buffer, 11 point dose response, top dose 3 μM, Table 20, read-out: Nav 1.8 MedChem Optical Assay EVIPR Assay Method A HS IC50. The method in brief: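 Read-out: FRET membrane-potential dye ratio (460/580 nm) before and during E-VIPR field stimulation at 10 Hz for 10 s, expressed as % activity between DMSO and positive controls. Cells: HEK with truncated human NaV1.8; compound preincubated 30 min at room temp, final DMSO 0.625%.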
truncated form of human NaV 1.8 with full channel activity, sequence (Q9Y5Y9 126-1722 limits assumed): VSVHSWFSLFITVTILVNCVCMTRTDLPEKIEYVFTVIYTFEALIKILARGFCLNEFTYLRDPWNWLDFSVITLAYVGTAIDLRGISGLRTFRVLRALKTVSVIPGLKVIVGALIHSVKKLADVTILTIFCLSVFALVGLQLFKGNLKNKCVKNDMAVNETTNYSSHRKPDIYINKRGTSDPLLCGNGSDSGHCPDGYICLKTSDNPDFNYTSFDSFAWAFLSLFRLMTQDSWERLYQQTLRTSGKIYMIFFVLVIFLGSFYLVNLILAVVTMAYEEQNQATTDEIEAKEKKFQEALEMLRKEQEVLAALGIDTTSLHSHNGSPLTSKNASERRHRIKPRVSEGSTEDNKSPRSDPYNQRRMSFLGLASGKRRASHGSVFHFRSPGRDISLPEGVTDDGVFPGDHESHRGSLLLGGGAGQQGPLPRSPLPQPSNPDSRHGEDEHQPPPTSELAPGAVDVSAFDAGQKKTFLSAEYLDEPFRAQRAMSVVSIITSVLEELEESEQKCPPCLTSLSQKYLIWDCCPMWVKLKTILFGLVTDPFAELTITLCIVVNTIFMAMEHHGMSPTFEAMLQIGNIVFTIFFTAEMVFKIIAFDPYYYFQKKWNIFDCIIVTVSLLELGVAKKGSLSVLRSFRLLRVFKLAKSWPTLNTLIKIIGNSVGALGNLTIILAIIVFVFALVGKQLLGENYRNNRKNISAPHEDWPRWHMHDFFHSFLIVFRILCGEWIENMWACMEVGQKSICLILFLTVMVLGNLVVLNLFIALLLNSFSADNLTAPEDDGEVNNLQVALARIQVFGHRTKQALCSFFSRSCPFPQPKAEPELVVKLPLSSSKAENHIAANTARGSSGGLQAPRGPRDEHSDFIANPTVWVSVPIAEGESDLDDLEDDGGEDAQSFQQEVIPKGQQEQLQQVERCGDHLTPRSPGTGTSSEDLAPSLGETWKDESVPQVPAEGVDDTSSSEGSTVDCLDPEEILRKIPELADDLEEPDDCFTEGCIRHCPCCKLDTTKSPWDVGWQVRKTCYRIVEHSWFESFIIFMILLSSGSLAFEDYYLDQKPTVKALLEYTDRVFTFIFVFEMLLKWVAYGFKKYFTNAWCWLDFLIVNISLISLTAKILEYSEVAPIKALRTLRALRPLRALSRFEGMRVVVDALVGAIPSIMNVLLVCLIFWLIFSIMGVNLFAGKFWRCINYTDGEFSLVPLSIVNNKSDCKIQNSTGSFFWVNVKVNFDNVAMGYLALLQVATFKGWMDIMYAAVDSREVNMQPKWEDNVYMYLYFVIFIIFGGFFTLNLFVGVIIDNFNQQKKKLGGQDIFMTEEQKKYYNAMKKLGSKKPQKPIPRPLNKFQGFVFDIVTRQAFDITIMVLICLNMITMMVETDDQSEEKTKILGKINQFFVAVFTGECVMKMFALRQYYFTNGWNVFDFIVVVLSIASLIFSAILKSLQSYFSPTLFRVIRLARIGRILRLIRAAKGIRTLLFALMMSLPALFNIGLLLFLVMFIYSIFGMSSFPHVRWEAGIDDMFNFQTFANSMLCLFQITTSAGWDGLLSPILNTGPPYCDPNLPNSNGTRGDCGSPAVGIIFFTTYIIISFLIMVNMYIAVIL
For the compound `COc1c(Oc2ccc(C(F)(F)F)c(F)c2C(=O)Nc2ccnc(C(N)=O)c2)ccc(OC(F)(F)F)c1F` [Compound 26, 4-[[2-fluoro-6-[3-fluoro-2-methoxy-4-(trifluoromethoxy)phenoxy]-3-(trifluoromethyl)benzoyl]amino]pyridine-2-carboxamide], the IC50 (as a rule, the concentration that gives 50% inhibition) was found to be 2 nM.

On to `[2H]C([2H])([2H])Oc1cc(OC(F)(F)F)ccc1Oc1ccc(C(F)(F)F)c(F)c1C(=O)Nc1ccc(C(N)=O)nc1` [Compound 24, 5-[[2-fluoro-6-[2-(trideuteriomethoxy)-4-(trifluoromethoxy)phenoxy]-3-(trifluoromethyl)benzoyl]amino]pyridine-2-carboxamide], for which the IC50 came to 18 nM.

`NC(=O)c1cc(NC(=O)c2c(Oc3ccc(OC(F)(F)F)c(Cl)c3)ccc(C(F)(F)F)c2F)ccc1F` [Compound 14, N-(3-carbamoyl-4-fluoro-phenyl)-6-[3-chloro-4-(trifluoromethoxy)phenoxy]-2-fluoro-3-(trifluoromethyl)benzamide]: the IC50 was 6 nM.

Still in this assay, the particulars now being: HEK cells expressing human NaV 1.8, HS (human serum) in compound loading buffer, 11 point dose response, top dose 3 μM, Table 20A, read-out: Nav 1.8 MedChem Optical Assay EVIPR Assay Method A HS IC50.
As to `[2H]C([2H])([2H])Oc1cc(OC(F)(F)F)ccc1Oc1ccc(C(F)(F)F)c(OC)c1C(=O)Nc1cc(C(N)=O)ncc1C` [Compound 146, 4-[[2-Methoxy-6-[2-(trideuteriomethoxy)-4-(trifluoromethoxy)phenoxy]-3-(trifluoromethyl)benzoyl]amino]-5-methyl-pyridine-2-carboxamide], the IC50 was 39 nM. Turning to `COc1cc(OC(F)(F)F)ccc1Oc1cc(C(F)(F)F)ccc1C(=O)Nc1cccc(C(N)=O)c1` [Compound 28, N-(3-Carbamoylphenyl)-2-[2-methoxy-4-(trifluoromethoxy)phenoxy]-4-(trifluoromethyl)benzamide], the IC50 came out at 108 nM. For `COc1cc(OC(F)(F)F)ccc1Oc1cccc(C(F)(F)F)c1C(=O)Nc1ccc(F)c(C(N)=O)c1` [Compound 40, N-(3-Carbamoyl-4-fluoro-phenyl)-2-[2-methoxy-4-(trifluoromethoxy)phenoxy]-6-(trifluoromethyl)benzamide], the IC50 came to 34 nM. Same read-out and setting: under `COc1cc(OC(F)(F)F)ccc1Oc1ccc(C(F)(F)F)c(F)c1C(=O)Nc1cncc(C(N)=O)c1` [Compound 52, 5-[[2-fluoro-6-[2-methoxy-4-(trifluoromethoxy)phenoxy]-3-(trifluoromethyl)benzoyl]amino]pyridine-3-carboxamide] stands 14 nM; under `[2H]C([2H])([2H])Oc1c(Oc2ccc(Cl)c(F)c2C(=O)Nc2cc(C(N)=O)ncc2C)ccc(OC(F)(F)F)c1F` [Compound 240, 4-[[3-chloro-2-fluoro-6-[3-fluoro-2-(trideuteriomethoxy)-4-(trifluoromethoxy)phenoxy]benzoyl]amino]-5-methyl-pyridine-2-carboxamide], 11 nM; under `COc1cc(OC(F)(F)F)ccc1Oc1ccc(C(F)(F)F)c(F)c1C(=O)Nc1cc(C)nc(C(N)=O)c1` [Compound 86, 4-[[2-fluoro-6-[2-methoxy-4-(trifluoromethoxy)phenoxy]-3-(trifluoromethyl)benzoyl]amino]-6-methyl-pyridine-2-carboxamide], 32 nM. Take `COc1cc(OC(F)(F)F)ccc1Oc1ccc(C(F)(F)F)c(F)c1C(=O)Nc1ccc(F)c(C(=O)N(C)C)c1` [Compound 95, N-[3-(dimethylcarbamoyl)-4-fluoro-phenyl]-2-fluoro-6-[2-methoxy-4-(trifluoromethoxy)phenoxy]-3-(trifluoromethyl)benzamide]: the IC50 worked out at 45 nM.

In the case of `[2H]C([2H])([2H])Oc1c(Oc2ccc(OC(F)(F)F)c(NC)c2C(=O)Nc2ccnc(C(=O)NC)c2)ccc(OC(F)(F)F)c1F` [Compound 230, 4-[[6-[3-Fluoro-2-(trideuteriomethoxy)-4-(trifluoromethoxy)phenoxy]-2-(methylamino)-3-(trifluoromethoxy)benzoyl]amino]-N-methyl-pyridine-2-carboxamide], the IC50 came out at 250 nM. On to `COc1cc(OC(F)(F)F)ccc1Oc1ccc(C(F)(F)C(F)(F)F)cc1C(=O)Nc1ccnc(C(N)=O)c1` [Compound 81], for which the IC50 was 38 nM. Consider `NC(=O)c1cc(NC(=O)c2cc(C(F)(F)C(F)(F)F)ccc2Oc2ccc(OC(F)(F)F)cc2)ccn1` [Compound 80, 4-[[5-(1,1,2,2,2-pentafluoroethyl)-2-[4-(trifluoromethoxy)phenoxy]benzoyl]amino]pyridine-2-carboxamide], for which the IC50 worked out at 127 nM. In the case of `[2H]C([2H])([2H])Oc1cc(OC(F)(F)F)ccc1Oc1ccc(OC(F)F)c(F)c1C(=O)Nc1ccnc(C(N)=O)c1` [Compound 155, 4-[[3-(Difluoromethoxy)-2-fluoro-6-[2-(trideuteriomethoxy)-4-(trifluoromethoxy)phenoxy]benzoyl]amino]pyridine-2-carboxamide], the IC50 was 17 nM.

As to `COc1cc(OC(F)(F)F)ccc1Oc1cc([C@@H]2C[C@H]2C)ncc1C(=O)Nc1ccnc(C(N)=O)c1` (single isomer, unassigned) [Compound 112], the IC50 is 43 nM.

In the case of `COc1cc(OC(F)(F)F)ccc1Oc1cc(C(F)(F)F)cc(F)c1C(=O)Nc1ccc(F)c(C(N)=O)c1` [Compound 140, N-(3-Carbamoyl-4-fluoro-phenyl)-2-fluoro-6-[2-methoxy-4-(trifluoromethoxy)phenoxy]-4-(trifluoromethyl)benzamide], the IC50 turned out to be 5 nM. Take `COc1cc(OC(F)(F)F)ccc1Oc1cncc(F)c1C(=O)Nc1ccc(F)c(C(N)=O)n1` [Compound 164, 3-Fluoro-6-[[3-fluoro-5-[2-methoxy-4-(trifluoromethoxy)phenoxy]pyridine-4-carbonyl]amino]pyridine-2-carboxamide]: the IC50 turned out to be 1600 nM. Consider `NC(=O)c1cc(NC(=O)c2c(Cl)cc(Cl)cc2Oc2ccc(OC(F)(F)F)cc2)ccn1` [Compound 180, 4-[[2,4-Dichloro-6-[4-(trifluoromethoxy)phenoxy]benzoyl]amino]pyridine-2-carboxamide], for which the IC50 amounted to 75 nM. Same read-out and setting: under `COc1cc(OC(F)(F)F)ccc1Oc1cncc(F)c1C(=O)Nc1cc(C(N)=O)ncc1C` [Compound 151, 4-[[3-Fluoro-5-[2-methoxy-4-(trifluoromethoxy)phenoxy]pyridine-4-carbonyl]amino]-5-methyl-pyridine-2-carboxamide] stands 520 nM. As to `NC(=O)c1cc(NC(=O)c2c(Oc3ccc(OC(F)(F)F)cc3O)ccc(C(F)(F)F)c2F)ccc1F` [Compound 142, N-(3-Carbamoyl-4-fluoro-phenyl)-2-fluoro-6-[2-hydroxy-4-(trifluoromethoxy)phenoxy]-3-(trifluoromethyl)benzamide], the IC50 was 310 nM.

In the case of `COc1cc(OC(F)(F)F)ccc1Oc1ccc(F)c(Cl)c1C(=O)Nc1ccc(C(N)=O)nc1` [Compound 186, 5-[[2-Chloro-3-fluoro-6-[2-methoxy-4-(trifluoromethoxy)phenoxy]benzoyl]amino]pyridine-2-carboxamide], the half-maximal inhibitory concentration (IC50) was found to be 190 nM.

With `[2H]C([2H])([2H])Oc1cc(OC(F)(F)F)ccc1Oc1ccc(C(F)(F)F)c(F)c1C(=O)Nc1cnc(C(N)=O)cc1C` [Compound 161, 5-[[2-fluoro-6-[2-(trideuteriomethoxy)-4-(trifluoromethoxy)phenoxy]-3-(trifluoromethyl)benzoyl]amino]-4-methyl-pyridine-2-carboxamide], the IC50 worked out at 150 nM. Take `Cn1nccc1-c1cc(F)ccc1Oc1ccc(C(F)(F)F)c(F)c1C(=O)Nc1ccc(F)c(C(N)=O)c1` [Compound 135, N-(3-Carbamoyl-4-fluoro-phenyl)-2-fluoro-6-[4-fluoro-2-(2-methylpyrazol-3-yl)phenoxy]-3-(trifluoromethyl)benzamide]: the 50% inhibitory concentration (IC50) was 140 nM. As for `COc1cc(OC(F)(F)F)ccc1Oc1cc(C(F)(F)F)ncc1C(=O)Nc1ccc(OC)c(C(N)=O)c1` [Compound 239, N-(3-carbamoyl-4-methoxy-phenyl)-4-[2-methoxy-4-(trifluoromethoxy)phenoxy]-6-(trifluoromethyl)pyridine-3-carboxamide], the IC50 amounted to 2700 nM. `COc1cc(F)ccc1-c1cc(C(C)(C)C)ncc1C(=O)Nc1ccc(F)c(C(N)=O)c1` [Compound 199, 6-tert-butyl-N-(3-carbamoyl-4-fluoro-phenyl)-4-(4-fluoro-2-methoxy-phenyl)pyridine-3-carboxamide]: the half-inhibitory concentration (IC50) is 170 nM. On to `COc1cc(OC(F)(F)F)ccc1Oc1cc([C@H]2C[C@@H]2C)ncc1C(=O)Nc1ccnc(C(N)=O)c1` (single isomer, unassigned) [Compound 111], for which the IC50 stood at 200 nM. On to `[2H]C([2H])([2H])Oc1c(Oc2cc(C(F)(F)F)cc(F)c2C(=O)Nc2ccnc(C(N)=O)c2)ccc(OC(F)(F)F)c1F` [Compound 223, 4-[[2-Fluoro-6-[3-fluoro-2-(trideuteriomethoxy)-4-(trifluoromethoxy)phenoxy]-4-(trifluoromethyl)benzoyl]amino]pyridine-2-carboxamide], for which the IC50 is 8 nM.

For `[2H]C([2H])([2H])Oc1cc(OC(F)(F)F)ccc1Oc1ccc(OC(F)(F)F)c(F)c1C(=O)Nc1ccc(C(N)=O)nc1` [Compound 167, 5-[[2-fluoro-6-[2-(trideuteriomethoxy)-4-(trifluoromethoxy)phenoxy]-3-(trifluoromethoxy)benzoyl]amino]pyridine-2-carboxamide], the IC50 was found to be 45 nM. Same read-out and setting: under `NC(=O)c1cc(NC(=O)c2c(Oc3cccc4c3OCC4)ccc(C(F)(F)F)c2F)ccc1F` [Compound 58, N-(3-Carbamoyl-4-fluoro-phenyl)-6-(2,3-dihydrobenzofuran-7-yloxy)-2-fluoro-3-(trifluoromethyl)benzamide] stands 190 nM.

With `COc1cc(OC(F)(F)F)ccc1Oc1cc(C2CC2)ncc1C(=O)Nc1ccnc(C(N)=O)c1` [Compound 78], the IC50 came to 97 nM.

For the origin of these results see US12281057B2 (VERTEX PHARMACEUTICALS INCORPORATED, priority 2017, dated 2025).
